# Reference: patent US7897627B2, “Heteroaryl derivatives as orexin receptor antagonists” (Hoffmann-La Roche Inc., priority 2007, dated 2011)
# Biological target: T1, human orexin-2 (hOX2) receptor (Homo sapiens, UniProt O43614)
# T1 construct: expressed in transfected cells
# T1 sequence (O43614 1-444): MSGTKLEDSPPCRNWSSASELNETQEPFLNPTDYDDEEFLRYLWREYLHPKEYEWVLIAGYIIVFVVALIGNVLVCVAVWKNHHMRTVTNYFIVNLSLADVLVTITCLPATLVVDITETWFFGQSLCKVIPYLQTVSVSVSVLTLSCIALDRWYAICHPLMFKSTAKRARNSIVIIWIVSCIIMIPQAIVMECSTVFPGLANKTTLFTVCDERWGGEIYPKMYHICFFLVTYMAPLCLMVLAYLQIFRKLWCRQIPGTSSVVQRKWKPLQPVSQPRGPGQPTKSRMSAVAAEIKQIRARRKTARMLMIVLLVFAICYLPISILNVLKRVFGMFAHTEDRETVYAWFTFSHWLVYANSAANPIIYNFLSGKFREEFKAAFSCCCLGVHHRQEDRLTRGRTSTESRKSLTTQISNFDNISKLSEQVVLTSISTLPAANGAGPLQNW
# Test: Intracellular Ca2+ mobilization assay (FLIPR), CHO(dHFr-) cells expressing hOX2, orexin-A as agonist
# Format: cell-based
# Settings: antagonist Kb=IC50/(1+[A]/EC50); orexin-A at EC80; CHO(dHFr-)-OX2R cells; antagonist applied 25 min before agonist
# Description: Intracellular Ca^2+ Mobilization Assay
# The Chinese Hamster Ovary (dHFr-) mutant cell line stably expressing human orexin-1 (hOX1) or human orexin-2 (hOX2) receptors were maintained in Dulbecco's Modified Eagle Medium (1×) with GlutaMax™1, 4500 mg/L D-Glucose and Sodium Pyruvate (Catalog No. 31966-021, Invitrogen, Carlsbad, Calif.), 5% dialyzed fetal calf serum (Catalog No. 26400-044), 100 μg/ml penicillin and 100 μg/ml streptomycin. The cells were seeded at 5×10^4 cells/well in the poly-D-lysine treated, 96-well, black/clear-bottomed plates (Catalog No. BD356640, BD Biosciences, Palo Alto, Calif.). 24 h later, the cells were loaded for 1 h at 37° C. with 4 μM Flou-4 acetoxymethyl ester (Catalog No. F-14202, Molecular Probes, Eugene, Oreg.) in FLIPR buffer (1×HBSS, 20 mM HEPES, 2.5 mM Probenecid). Hanks' Balanced Salt Solution (HBSS) (10×) (catalog No. 14065-049) and HEPES (1M) (catalog No. 15630-056) were purchased from Invitrogen, Carlsbad, Calif. Probenecid (250 mM) (catalog No. P8761) was from Sigma, Buchs, Switzerland. The cells were washed five times with FLIPR buffer to remove excess dye and intracellular calcium mobilization, [Ca^2−]i were measured using a Fluorometric Imaging Plate Reader (FLIPR-96, Molecular Devices, Menlo Park, Calif.) as described previously (Malherbe et al., Mol. Pharmacol., 64, 823-832, 2003). Orexin A (catalog No. 1455, Toris Cookson Ltd, Bristol, UK) was used as agonist. Orexin A ([…] stock solution in DMSO) was diluted in FLIPR buffer+0.1% BSA. The EC50 and EC80 values of orexin-A were measured daily from standard agonist concentration-response curves in CHO(dHFr-)-OX1R and -OX2R cell lines. All compounds were dissolved in 100% DMSO. Inhibition curves were determined by addition of 11 concentrations (0.0001-10 μM) of inhibitory compounds and using EC80 value of orexin-A as agonist (a concentration which gave 80% of max agonist response, determined daily). The antagonists were applied 25 min (incubation at 37° C.) before the application of the agonist. Responses were measured as peak increase in fluorescence minus basal, normalized to the maximal stimulatory effect induced by EC80 value of orexin-A or orexin-B. Inhibition curves were fitted according to the Hill equation: y=100/(1+(x/IC50)^nH), where nH=slope factor using Excel-fit 4 software (Microsoft).
# Kb values were calculated according to the following equation Kb=IC50/(1+[A]/EC50) where A is the concentration of agonist added which is very close to agonist EC80 value, and IC50 and EC50 values were derived from the antagonist inhibition and orexin-A or B agonist curves, respectively.
row,Kb,Compound
1,0.0145 µM,"Cc1nc(-c2ccccc2)c(C(=O)N2CC[C@@H](Nc3nc4ccc(Cl)cc4o3)C2)s1 [Example 78, [(R)-3-(6-Chloro-benzooxazol-2-ylamino)-pyrrolidin-1-yl]-(2-methyl-4-phenyl-thiazol-5-yl)-methanone]"
2,0.0173 µM,"O=C(c1c(Cl)cccc1C(F)(F)F)N1CC[C@@H](Nc2nc3ccc(Cl)cc3o2)C1 [Example 79, [(R)-3-(6-Chloro-benzooxazol-2-ylamino)-pyrrolidin-1-yl]-(2-chloro-6-trifluoromethyl-phenyl)-methanone]"
3,0.0041 µM,"O=C(c1ccccc1OC(F)(F)C(F)F)N1CC[C@@H](Nc2nc3ccc(Cl)cc3o2)C1 [Example 82, [(R)-3-(6-Chloro-benzooxazol-2-ylamino)-pyrrolidin-1-yl]-[2-(1,1,2,2-tetrafluoro-ethoxy)-phenyl]-methanone]"
4,0.0056 µM,"O=C(c1ccccc1-c1ccsc1)N1CC[C@@H](Nc2nc3ccc(Cl)cc3o2)C1 [Example 84, [(R)-3-(6-Chloro-benzooxazol-2-ylamino)-pyrrolidin-1-yl]-(2-thiophen-3-yl-phenyl)-methanone]"
5,0.0169 µM,"Cc1cc(C(=O)N2CC[C@@H](Nc3nc4ccc(Cl)cc4o3)C2)c(C(F)(F)F)o1 [Example 86, [(R)-3-(6-Chloro-benzooxazol-2-ylamino)-pyrrolidin-1-yl]-(5-methyl-2-trifluoromethyl-furan-3-yl)-methanone]"
6,0.0186 µM,"O=C(c1c(F)cccc1N1CCCC1)N1CC[C@@H](Nc2nc3ccc(Cl)cc3o2)C1 [Example 90, [(R)-3-(6-Chloro-benzooxazol-2-ylamino)-pyrrolidin-1-yl]-(2-fluoro-6-pyrrolidin-1-yl-phenyl)-methanone]"
7,0.0029 µM,"COc1cccc(OC)c1C(=O)N1CC[C@@H](Nc2cnc3cc(F)c(F)cc3n2)C1 [Example 92, [(R)-3-(6,7-Difluoro-quinoxalin-2-ylamino)-pyrrolidin-1-yl]-(2,6-dimethoxy-phenyl)-methanone]"
8,0.0164 µM,"COc1cccc(OC)c1C(=O)N1CC[C@@H](Nc2nc3ccc(F)c(F)c3o2)C1 [Example 93, [(R)-3-(6,7-Difluoro-benzooxazol-2-ylamino)-pyrrolidin-1-yl]-(2,6-dimethoxy-phenyl)-methanone]"
9,0.0091 µM,"COc1cccc(OC)c1C(=O)N1CC[C@@H](Nc2nc3c(F)cccc3s2)C1 [Example 94, (2,6-Dimethoxy-phenyl)-[(R)-3-(4-fluoro-benzothiazol-2-ylamino)-pyrrolidin-1-yl]-methanone]"
10,0.0426 µM,"COc1cccc(OC)c1C(=O)N1CC[C@@H](Nc2nc3ccc(F)cc3o2)C1 [Example 95, (2,6-Dimethoxy-phenyl)-[(R)-3-(6-fluoro-benzooxazol-2-ylamino)-pyrrolidin-1-yl]-methanone]"
11,0.0063 µM,"COc1cccc(OC)c1C(=O)N1CC[C@@H](Nc2nc3cccc(Cl)c3o2)C1 [Example 97, [(R)-3-(7-Chloro-benzooxazol-2-ylamino)-pyrrolidin-1-yl]-(2,6-dimethoxy-phenyl)-methanone]"
12,0.01 µM,"COc1cccc(OC)c1C(=O)N1CC[C@@H](Nc2nc3cccc(F)c3s2)C1 [Example 100, (2,6-Dimethoxy-phenyl)-[(R)-3-(7-fluoro-benzothiazol-2-ylamino)-pyrrolidin-1-yl]-methanone]"
13,0.0129 µM,"COc1cccc(OC)c1C(=O)N1CC[C@@H](Nc2nc3c(C)cccc3o2)C1 [Example 106, (2,6-Dimethoxy-phenyl)-[(R)-3-(4-methyl-benzooxazol-2-ylamino)-pyrrolidin-1-yl]-methanone]"
14,0.0319 µM,"COc1cccc(OC)c1C(=O)N1CC[C@@H](Nc2cnc3cc(F)ccc3n2)C1 [Example 110, (2,6-Dimethoxy-phenyl)-[(R)-3-(6-fluoro-quinoxalin-2-ylamino)-pyrrolidin-1-yl]-methanone]"
15,0.0344 µM,"O=C(c1ccccc1C(F)(F)F)N1CC[C@@H](Nc2nc3ccc(F)cc3s2)C1 [Example 112, [(R)-3-(6-Fluoro-benzothiazol-2-ylamino)-pyrrolidin-1-yl]-(2-trifluoromethyl-phenyl)-methanone]"
16,0.0217 µM,"O=C(c1ccccc1OC(F)(F)F)N1CC[C@@H](Nc2nc3ccc(F)cc3s2)C1 [Example 113, [(R)-3-(6-Fluoro-benzothiazol-2-ylamino)-pyrrolidin-1-yl]-(2-trifluoromethoxy-phenyl)-methanone]"
17,0.002 µM,"O=C(c1ccccc1OC(F)(F)C(F)F)N1CC[C@@H](Nc2nc3ccc(F)cc3s2)C1 [Example 114, [(R)-3-(6-Fluoro-benzothiazol-2-ylamino)-pyrrolidin-1-yl]-[2-(1,1,2,2-tetrafluoro-ethoxy)-phenyl]-methanone]"
18,0.0068 µM,"Cc1ccc(C(F)(F)F)c(C(=O)N2CC[C@@H](Nc3nc4ccc(F)cc4s3)C2)c1 [Example 115, [(R)-3-(6-Fluoro-benzothiazol-2-ylamino)-pyrrolidin-1-yl]-(5-methyl-2-trifluoromethyl-phenyl)-methanone]"
19,0.0261 µM,"Cc1onc(-c2ccccc2)c1C(=O)N1CC[C@@H](Nc2nc3ccc(F)cc3s2)C1 [Example 116, [(R)-3-(6-Fluoro-benzothiazol-2-ylamino)-pyrrolidin-1-yl]-(5-methyl-3-phenyl-isoxazol-4-yl)-methanone]"
20,0.0197 µM,"Cc1noc(-c2ccccc2C(=O)N2CC[C@@H](Nc3nc4ccc(F)cc4s3)C2)n1 [Example 117, [(R)-3-(6-Fluoro-benzothiazol-2-ylamino)-pyrrolidin-1-yl]-[2-(3-methyl-[1,2,4]oxadiazol-5-yl)-phenyl]-methanone]"
21,0.039 µM,"Cc1ccc(Cl)c(C(=O)N2CC[C@@H](Nc3nc4ccc(F)cc4s3)C2)c1 [Example 118, (2-Chloro-5-methyl-phenyl)-[(R)-3-(6-fluoro-benzothiazol-2-ylamino)-pyrrolidin-1-yl]-methanone]"
22,0.0188 µM,"Cc1nc(C(=O)N2CC[C@@H](Nc3nc4ccc(F)cc4s3)C2)c(-c2ccccc2)s1 [Example 120, [(R)-3-(6-Fluoro-benzothiazol-2-ylamino)-pyrrolidin-1-yl]-(2-methyl-5-phenyl-thiazol-4-yl)-methanone]"
23,0.0193 µM,"O=C(c1ccccc1OC(F)(F)F)N1CC[C@@H](Nc2nc3c(F)cccc3s2)C1 [Example 122, [(R)-3-(4-Fluoro-benzothiazol-2-ylamino)-pyrrolidin-1-yl]-(2-trifluoromethoxy-phenyl)-methanone]"
24,0.0032 µM,"O=C(c1ccccc1OC(F)(F)C(F)F)N1CC[C@@H](Nc2nc3c(F)cccc3s2)C1 [Example 123, [(R)-3-(4-Fluoro-benzothiazol-2-ylamino)-pyrrolidin-1-yl]-[2-(1,1,2,2-tetrafluoro-ethoxy)-phenyl]-methanone]"
25,0.0363 µM,"Cc1ccc(C(F)(F)F)c(C(=O)N2CC[C@@H](Nc3nc4c(F)cccc4s3)C2)c1 [Example 124, [(R)-3-(4-Fluoro-benzothiazol-2-ylamino)-pyrrolidin-1-yl]-(5-methyl-2-trifluoromethyl-phenyl)-methanone]"
26,0.0144 µM,"Cc1noc(-c2ccccc2C(=O)N2CC[C@@H](Nc3nc4c(F)cccc4s3)C2)n1 [Example 126, [(R)-3-(4-Fluoro-benzothiazol-2-ylamino)-pyrrolidin-1-yl]-[2-(3-methyl-[1,2,4]oxadiazol-5-yl)-phenyl]-methanone]"
27,0.016 µM,"O=C(c1ccccc1OC(F)(F)C(F)F)N1CC[C@@H](Nc2nc3cc(F)cc(F)c3s2)C1 [Example 132, [(R)-3-(5,7-Difluoro-benzothiazol-2-ylamino)-pyrrolidin-1-yl]-[2-(1,1,2,2-tetrafluoro-ethoxy)-phenyl]-methanone]"
